Test results from patent publication EP1862454A1, “Novel compounds, isomer thereof or pharmaceutically acceptable salts thereof as vanilloid receptor antagonist; and a pharmaceutical composition containing the same” (Amorepacific Corporation, priority 2006, dated 2007).

Experiments:
Male ICR mice = assay: Analgesic activity test: mouse writhing test induced with phenyl-p-quinone; type: in vivo; settings: writhes counted vs control group
Experimental: 2. Analgesic activity test: Mouse writhing test by inducing with phenyl-p-quinone
Male ICR mice (mean body weight 25g) were maintained in a controlled lighting environment (12 h on/ 12 h off) for experiment. Animals received an intraperitoneal injection of 0.3ml of the chemical irritant phenyl-p-quinone (dissolved in saline containing 5% ethanol to be a dose of 4.5mg/kg) and 6 mins later, the number of abdominal constrictions was counted in the subsequent 6 mins period. Animals (10 animals/group) received 0.2ml of test compounds solution in vehicle of ethanol/Tween 80/saline (10/10/80) intraperitoneally 30 min before the injection of phenyl-p-quinone. A reduction in the number of writhes responding to the test drug compound relative to the number responding in saline control group was considered to be indicative of an analgesic effect. Analgesic effect was calculated by % inhibition equation (% inhibition=(C-T)/C x 100), wherein C and T represent the number of writhes in control and compound-treated group, respectively (Table 2).

vanilloid receptor = target: T1, vanilloid receptor (Rattus norvegicus, UniProt O35433); assay: 45Ca influx test in primary culture of neonatal rat DRG neurons, inhibition of the capsaicin response; type: cell-based, SD rats; settings: DRG nerve cells; capsaicin 0.5 µM; 45Ca 10 µCi/ml; 10 mins at room temperature; read-out: Antagonist Calcium Uptake Test (IC50)
T1 construct: DRG nerve cells from the primary culture of 2 days were equilibrated; endogenous in cells; host or cells: primary culture of dorsal root ganglion neurons from neonatal SD rats
Experimental: 1) Separation of spinal dorsal root ganglia (DRG) in newborn rats and primary culture thereof
Neonatal (2-3 day old or younger than 2-3 day old) SD rats were put in ice for 5 minutes to anesthetize and disinfected with 70% ethanol. DRG of all part of spinal cord were dissected (Wood et al., 1988, J. Neurosci. 8, pp3208-3220) and collected in DME/F12 medium to which 1.2g/l sodium bicarbonate and 50mg/l gentamycin were added. The DRG were incubated sequentially at 37°C for 30 min in 200 U/ml collagenase and 2.5mg/ml trypsin, separately. The ganglia were washed twice with DME/F12 medium supplemented with 10% horse serum, triturated through a fire-polished Pasteur pipette, filtered through Nitex 80 membrane to obtain single cell suspension and the suspension was washed once more. This was subjected to centrifugation, then resuspended in cell culture medium at certain level of cell density. As the cell culture medium, DME/F12 medium supplemented with 10% horse serum was diluted with identical medium conditioned by C6 glioma cells 2 days on a confluent monolayer (1:1), and NGF (Nerve Growth Factor) was added to adjust 200ng/ml as final concentration. After the cells were grown for 2 days in medium where cytosine arabinoside (Ara-C, 100 µM) was added to kill dividing nonneuronal cells, medium was changed to one without Ara-C. The resuspended cells were plated at a density of 1500-2000 neurons/well onto Terasaki plates previously coated with 10 µg/ml poly-D-ornithine.
2) ^45 Ca influx experiments
DRG nerve cells from the primary culture of 2 days were equilibrated by washing 4 times with HEPES (10mM, pH 7.4)-buffered Ca ^2+, Mg^2+-free HBSS (H-HBSS). The solution in each well was removed from the individual well. Medium containing the test compound plus capsaicin (final concentration 0.5 µM) and ^45Ca (final concentration 10 µCi/ml) in H-HBSS was added to each well and incubated at room temperature for 10 mins. Terasaki plates were washed five times with H-HBSS and dried at room temperature. To each well, 0.3% SDS (10 µl) was added to elute ^45Ca. After the addition of scintillation cocktail into each well, the amount of ^45Ca influx into neuron was measured by counting radioactivity. Antagonistic activities of test compounds against vanilloid receptor were calculated as percent of the inhibition of maximal response of capsaicin at a concentration of 0.5 µM. […]

T1 sequence (O35433 whole entry): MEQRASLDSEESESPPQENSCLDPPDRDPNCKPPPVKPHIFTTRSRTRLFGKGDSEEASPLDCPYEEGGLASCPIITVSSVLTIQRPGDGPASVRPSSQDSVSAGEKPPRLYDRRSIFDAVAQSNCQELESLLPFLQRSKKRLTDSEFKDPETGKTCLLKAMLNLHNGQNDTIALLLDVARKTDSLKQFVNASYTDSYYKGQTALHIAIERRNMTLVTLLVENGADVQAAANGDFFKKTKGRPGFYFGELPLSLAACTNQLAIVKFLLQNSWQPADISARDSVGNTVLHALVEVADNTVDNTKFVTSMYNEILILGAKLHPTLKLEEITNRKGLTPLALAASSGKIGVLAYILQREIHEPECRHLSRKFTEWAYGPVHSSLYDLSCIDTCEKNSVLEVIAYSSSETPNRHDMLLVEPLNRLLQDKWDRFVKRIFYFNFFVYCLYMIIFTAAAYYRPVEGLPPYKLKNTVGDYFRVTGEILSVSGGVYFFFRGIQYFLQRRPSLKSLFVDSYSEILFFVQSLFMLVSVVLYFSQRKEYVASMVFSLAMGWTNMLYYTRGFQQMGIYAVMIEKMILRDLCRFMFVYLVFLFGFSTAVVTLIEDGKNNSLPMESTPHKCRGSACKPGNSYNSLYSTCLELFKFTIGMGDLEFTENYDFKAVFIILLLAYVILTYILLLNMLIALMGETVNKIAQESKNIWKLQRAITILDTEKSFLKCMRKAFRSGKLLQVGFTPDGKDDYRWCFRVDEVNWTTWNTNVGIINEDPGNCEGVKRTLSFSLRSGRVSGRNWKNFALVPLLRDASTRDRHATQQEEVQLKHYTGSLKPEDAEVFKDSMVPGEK

Structure (SMILES)	Analgesic effect (%Inhibition) (Male ICR mice; Dose 0.3 mg/kg intraperitoneally 30 min before phenyl-p-quinone (4.5mg/kg)) [%]	IC50 (vanilloid receptor) [nM]	Analgesic effect (%Inhibition) (Male ICR mice; Dose 1 mg/kg intraperitoneally 30 min before phenyl-p-quinone (4.5mg/kg)) [%]
C=Cc1cc(CNC(=S)NCc2ccc(C(C)(C)C)cc2)ccc1NS(C)(=O)=O [Example 1, N-{4-[3-(4-t-butylbenzyl)thioureido-methyl]-2-vinyl-phenyl} methanesulfonamide]	93	54	
C=Cc1cc(CNC(=S)NCc2ccc(C(C)(C)C)cc2)cc(C(F)(F)F)c1NS(C)(=O)=O [Example 2, N-{4-[3-(4-t-butylbenzyl)thioureido-methyl]-2-trifluoromethyl-6-vinyl-phenyl}methanesulfonamide]		330	
C=Cc1cc(CNC(=S)NCc2ccc(C(C)(C)C)cc2)cc(F)c1NS(C)(=O)=O [Example 3, N-{4-[3-(4-t-butylbenzyl)thioureido-methyl]-2-fluoro-6-vinyl-phenyl}methanesulfonamide]		35	57
C=Cc1cc(CNC(=S)NCc2ccc(C(C)(C)C)cc2)cc(Cl)c1NS(C)(=O)=O [Example 4, N-{4-[3-(4-t-butylbenzyl)thioureido-methyl]-2-chloro-6-vinyl-phenyl}methanesulfonamide]		93	
C=Cc1cc(CNC(=S)NCc2ccc(C(C)(C)C)cc2)cc(C)c1NS(C)(=O)=O [Example 5, N-{4-[3-(4-t-butylbenzyl)thioureido-methyl]-2-methyl-6-vinyl-phenyl}methanesulfonamide]		190	
C=Cc1cc(C(C)NC(=S)NCc2ccc(C(C)(C)C)cc2)cc(F)c1NS(C)(=O)=O (centres unmarked) [Example 6, N-(4-{1-[3-(4-t-butylbenzyl)thioureido]ethyl}-2-fluoro-6-vinyl-phenyl) methanesulfonamide]		120	
